Drawing on patent US7511042B2, “Triazole compounds” (Boehringer Ingelheim Pharmaceuticals, Inc., priority 2003, dated 2009), this text covers melting point for two compounds.

SMILES strings stand for the structures.

What is called melting point is the temperature, or range, at which the solid turns liquid. Consider `COc1cnc(C(C)(C)C)cc1NC(=O)c1ccc(C)c(-n2cc(C(=O)NCC(C)(C)C)nn2)c1` [Example 12, 1-[5-(2-tert-Butyl-5-methoxy-pyridin-4-ylcarbamoyl)-2-methyl-phenyl]-1H-1,2,3-triazole-4-carboxylic acid (2,2-dimethyl-propyl)-amide], for which the melting point was 181 to 182 °C (dec.).
The figure for `Cc1ccc(C(=O)Nc2cc(C(C)(C)C)ccc2[S+](C)[O-])cc1-n1cc(C(=O)NCC(C)(C)C)nn1` (centres unmarked) [Example 13, 1-[5-(5-tert-Butyl-2-methanesulfinyl-phenylcarbamoyl)-2-methyl-phenyl]-1H-1,2,3-triazole-4-carboxylic acid (2,2-dimethyl-propyl)-amide] is 74 to 78 °C (dec.).
